Laboratory results published in PubChem BioAssay (NCI).
“And” between values parts separate entries of the source, which are not always exact repeats. Equal entries are not always repeated.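 All cell lines were grown in 96-well plates and treated with compound for 48 hours. Abbreviation: GI50, concentration required for 50% inhibition of growth. At the TGI there is no net growth.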

How the values were obtained:
Assay in all cases: NCI tumour cell line growth inhibition, 48 h; in the data active = GI50 below about 0.43 µM; inactive = the rest
A498 renal = test system: A498 renal
SF-268 CNS = test system: SF-268 CNS
HOP-62 NSCLC = test system: HOP-62 NSCLC
EKVX NSCLC = test system: EKVX NSCLC
HCT-116 colon = test system: HCT-116 colon
M14 melanoma = test system: M14 melanoma
DU-145 prostate = test system: DU-145 prostate
SK-MEL-28 melanoma = test system: SK-MEL-28 melanoma
OVCAR-5 ovarian = test system: OVCAR-5 ovarian
SK-OV-3 ovarian = test system: SK-OV-3 ovarian

C(=N\Nc1nnc(-c2nnc(N/N=C/c3ccccc3)o2)o1)/c1ccccc1
> 10 µM: TGI (A498 renal) | TGI (SF-268 CNS) | TGI (HOP-62 NSCLC) | TGI (EKVX NSCLC) | TGI (HCT-116 colon) | TGI (M14 melanoma) | TGI (DU-145 prostate) | TGI (SK-MEL-28 melanoma) | TGI (OVCAR-5 ovarian)

CN(C)CC(C)(C)C(=O)/C=C/c1ccccc1
26.7 µM: TGI (M14 melanoma)
96.3 µM: TGI (HOP-62 NSCLC)
39.5 µM: TGI (A498 renal)
31 µM: TGI (SK-MEL-28 melanoma)
27.4 µM: TGI (HCT-116 colon)
38.3 µM: TGI (EKVX NSCLC)

NS(=O)(=O)c1ccc(NS(=O)(=O)c2ccc(NC(=O)N(c3ccccc3)c3ccccc3)cc2)cc1
> 100 µM: TGI (A498 renal) | TGI (SF-268 CNS) | TGI (HOP-62 NSCLC) | TGI (EKVX NSCLC) | TGI (HCT-116 colon) | TGI (M14 melanoma) | TGI (DU-145 prostate) | TGI (SK-MEL-28 melanoma) | TGI (OVCAR-5 ovarian)

C=C1CC2C[C@H](OS(=O)(=O)c3ccc(C)cc3)C(C1)N2C (stereo partly drawn)
> 100 µM: TGI (SF-268 CNS) | TGI (HOP-62 NSCLC) | TGI (EKVX NSCLC) | TGI (SK-OV-3 ovarian) | TGI (HCT-116 colon) | TGI (M14 melanoma) | TGI (DU-145 prostate) | TGI (SK-MEL-28 melanoma)

CCCCCC(=O)OCC1(CO)C/C(=C/CC(C(C)C)C(C)C)C(=O)O1 (stereo not drawn)
> 75 µM: TGI (A498 renal) | TGI (SF-268 CNS) | TGI (HOP-62 NSCLC) | TGI (EKVX NSCLC) | TGI (SK-OV-3 ovarian) | TGI (HCT-116 colon) | TGI (DU-145 prostate) | TGI (SK-MEL-28 melanoma) | TGI (OVCAR-5 ovarian)

C/C(=N/OCCC(=O)O)C1CC1
> 100 µM: TGI (SF-268 CNS) | TGI (HOP-62 NSCLC) | TGI (EKVX NSCLC) | TGI (SK-OV-3 ovarian) | TGI (HCT-116 colon) | TGI (M14 melanoma) | TGI (SK-MEL-28 melanoma)

CCC(C)Cn1c(C)nc2c1C(=O)c1ccccc1C2=O (stereo not drawn)
> 100 µM: TGI (SF-268 CNS) | TGI (HOP-62 NSCLC) | TGI (EKVX NSCLC) | TGI (SK-OV-3 ovarian) | TGI (M14 melanoma) | TGI (SK-MEL-28 melanoma)

CC1CN=C(N(C(=O)Nc2ccccc2)C2CCCCC2)S1 (stereo not drawn)
33.1 µM: TGI (HCT-116 colon)
46 µM: TGI (SF-268 CNS)
28.2 µM: TGI (SK-MEL-28 melanoma)
35.4 µM: TGI (EKVX NSCLC)
69.7 µM: TGI (DU-145 prostate)
34.7 µM: TGI (A498 renal)
> 100 µM: TGI (HOP-62 NSCLC) | TGI (SK-OV-3 ovarian)
28.9 µM: TGI (OVCAR-5 ovarian)

Nc1nc(Cl)cc(NCC2CC(O)(CO)C2)n1 (stereo not drawn)
> 100 µM: TGI (A498 renal) | TGI (SF-268 CNS) | TGI (HOP-62 NSCLC) | TGI (EKVX NSCLC) | TGI (SK-OV-3 ovarian) | TGI (HCT-116 colon) | TGI (DU-145 prostate) | TGI (SK-MEL-28 melanoma) | TGI (OVCAR-5 ovarian)

CC1CC/C(=C\c2ccc(F)cc2)C2=C1C(c1ccc(F)cc1)NC(=S)N2 (stereo not drawn)
98.7 µM: TGI (A498 renal)
> 100 µM: TGI (SF-268 CNS) | TGI (SK-OV-3 ovarian) | TGI (HCT-116 colon) | TGI (M14 melanoma) | TGI (DU-145 prostate) | TGI (SK-MEL-28 melanoma)
79.3 µM: TGI (EKVX NSCLC)

Cc1cc(N)c2cc(NC(=O)CCCCCCCCC(=O)Nc3ccc4nc(C)cc(N)c4c3)ccc2n1
> 100 µM: TGI (SF-268 CNS) | TGI (HOP-62 NSCLC) | TGI (SK-OV-3 ovarian) | TGI (M14 melanoma) | TGI (OVCAR-5 ovarian)
> 79 µM: TGI (HCT-116 colon)
97 µM: TGI (SK-MEL-28 melanoma)
74 µM: TGI (A498 renal)
> 89 µM: TGI (EKVX NSCLC)

COc1ccc(OC)c([N+](=O)[O-])c1-c1nc2sc(C)cn2c1/C=N/N=C(N)N
> 100 µM: TGI (SF-268 CNS) | TGI (HOP-62 NSCLC) | TGI (EKVX NSCLC) | TGI (HCT-116 colon) | TGI (M14 melanoma) | TGI (DU-145 prostate) | TGI (OVCAR-5 ovarian)
78 µM: TGI (A498 renal)
43.5 µM: TGI (SK-MEL-28 melanoma)

N#Cc1c(NC(=S)Nc2ccccc2)sc2c1CCCC2
> 100 µM: TGI (A498 renal) | TGI (SF-268 CNS) | TGI (HOP-62 NSCLC) | TGI (EKVX NSCLC) | TGI (HCT-116 colon) | TGI (DU-145 prostate) | TGI (SK-MEL-28 melanoma) | TGI (OVCAR-5 ovarian)

Cc1nc(C)c(C(=O)NNC(=O)c2ccccc2)cc1C(=O)NNC(=O)c1ccccc1
> 10 µM: TGI (EKVX NSCLC)
> 100 µM: TGI (A498 renal) | TGI (SF-268 CNS) | TGI (HOP-62 NSCLC) | TGI (SK-OV-3 ovarian) | TGI (HCT-116 colon) | TGI (M14 melanoma) | TGI (DU-145 prostate) | TGI (OVCAR-5 ovarian)

CC1C/C(=C\c2ccc(O)c(O)c2)C(=O)/C(=C/c2ccc(O)c(O)c2)C1 (stereo not drawn)
32.1 µM: TGI (SF-268 CNS)
20 µM: TGI (HCT-116 colon)
32.8 µM: TGI (OVCAR-5 ovarian)
24.4 µM: TGI (HOP-62 NSCLC)
20.3 µM: TGI (SK-MEL-28 melanoma)
20.8 µM: TGI (DU-145 prostate)
12.8 µM: TGI (A498 renal)
30.1 µM: TGI (EKVX NSCLC)
53.1 µM: TGI (SK-OV-3 ovarian)

O=C1CSC2=NC3=C(COC/C3=C\c3ccc(F)cc3)C(c3ccc(F)cc3)N12 (stereo not drawn)
> 100 µM: TGI (A498 renal) | TGI (SF-268 CNS) | TGI (HOP-62 NSCLC) | TGI (EKVX NSCLC) | TGI (SK-OV-3 ovarian) | TGI (HCT-116 colon) | TGI (M14 melanoma) | TGI (DU-145 prostate) | TGI (OVCAR-5 ovarian)

C[C@@H]1CC(=O)[C@@]2(C)[C@](O)(CCC3O[C@]32C)[C@@]12CC(c1ccoc1)OC2=O (stereo partly drawn)
> 100 µM: TGI (A498 renal) | TGI (EKVX NSCLC) | TGI (SK-OV-3 ovarian) | TGI (HCT-116 colon) | TGI (M14 melanoma) | TGI (DU-145 prostate) | TGI (SK-MEL-28 melanoma) | TGI (OVCAR-5 ovarian)

c1ccc(C2C3=C(CCCC3)Nc3nnnn32)cc1 (stereo not drawn)
90.8 µM: TGI (SF-268 CNS)
> 100 µM: TGI (A498 renal) | TGI (HOP-62 NSCLC) | TGI (SK-OV-3 ovarian) | TGI (HCT-116 colon) | TGI (M14 melanoma) | TGI (DU-145 prostate) | TGI (OVCAR-5 ovarian)

COc1cccc2c1C(=O)c1c(O)c3c(c(O)c1C2=O)C[C@@](O)(C(=O)CO)CC3OC1CC(NCCCCC(OC(C)=O)OC(C)=O)C(O)C(C)O1 (stereo partly drawn)
0.00458 µM and 0.00549 µM: TGI (M14 melanoma)
0.0143 µM: TGI (EKVX NSCLC)
active: GI50 (HOP-62 NSCLC) 0.00248 µM | GI50 (EKVX NSCLC) 0.00368 µM | GI50 (SK-OV-3 ovarian) 0.00567 µM | GI50 (M14 melanoma) 0.0011 µM
0.0211 µM: TGI (A498 renal)
> 1 µM: TGI (SK-OV-3 ovarian) | TGI (OVCAR-5 ovarian)

COc1ccc(-c2nc3ncccn3c2-c2ccc(S(C)(=O)=O)cc2)cc1
> 100 µM: TGI (SF-268 CNS) | TGI (HOP-62 NSCLC) | TGI (SK-OV-3 ovarian) | TGI (HCT-116 colon) | TGI (M14 melanoma) | TGI (DU-145 prostate) | TGI (SK-MEL-28 melanoma) | TGI (OVCAR-5 ovarian)

NC(=O)c1nnc2c(F)cccc2c1N
> 100 µM: TGI (A498 renal) | TGI (SF-268 CNS) | TGI (HOP-62 NSCLC) | TGI (EKVX NSCLC) | TGI (SK-OV-3 ovarian) | TGI (HCT-116 colon) | TGI (M14 melanoma) | TGI (DU-145 prostate) | TGI (OVCAR-5 ovarian)

N#CC(NNC(=O)c1c(Cl)c(Cl)c(Cl)c(Cl)c1-c1nc2ccc(C(=O)c3ccccc3)cc2[nH]1)c1cccc(Oc2ccccc2)c1 (stereo not drawn)
70.2 µM: TGI (HOP-62 NSCLC)
37.6 µM: TGI (EKVX NSCLC)
63.4 µM: TGI (A498 renal)
80.3 µM: TGI (OVCAR-5 ovarian)
> 100 µM: TGI (SK-OV-3 ovarian) | TGI (HCT-116 colon) | TGI (DU-145 prostate)
74.1 µM: TGI (SK-MEL-28 melanoma)
83.9 µM: TGI (M14 melanoma)

S=C1NNC(=S)NN1
> 1 µM: TGI (A498 renal) | TGI (SF-268 CNS) | TGI (HOP-62 NSCLC) | TGI (EKVX NSCLC) | TGI (SK-OV-3 ovarian) | TGI (HCT-116 colon) | TGI (M14 melanoma) | TGI (DU-145 prostate) | TGI (SK-MEL-28 melanoma)
